Read-outs that look alike come from different tables or passages of the source.
Assays:
[1] = Transnasal administration of topiramate to the sphenopalatine ganglion in human patients (Example 1); type: in vivo
Excerpt: The devices and methods described above were applied to the treatment of human patients for headache pain, when the inventor observed a dramatic effect with regard to treating obesity and promoting weight-loss. The results of this testing are surprising and unexpected in view of efficacy of the very low dosages administered as compared to published treatment regimens using topiramate without any co-delivered medicament for the treatment of obesity. […] The method of treatment was as follows: Topiramate was dissolved in sterile water to a concentration of 5 mg/mL. Then, 0.3 mL of this solution (1.5 mg of topiramate) per nostril was administered transnasally to the sphenopalatine ganglion using a Tx360® nasal applicator (from Tian Medical of Lombard, Ill.) in the manner described above with reference to the devices shown in FIGS. 6-11B and the relative distal-end anatomic positioning described with reference to FIGS. 4-5. This dosage was administered once per week for four weeks. Each patient lost between 5% and 10% of his/her body weight over the four-week period. […] It is expected that dosage may be effective for headache pain and for promoting weight loss as treatment for obesity at a frequency from once or twice per day to once per month when administered at […] delivered as about 0.2-0.3 mL per nostril toward the SPG. Although this sample is very small, it compares highly favorably to published studies using topiramate for weight loss, and the effective dosage was surprising far lower than the effective dosages reported in the literature. As a first example, in Obesity Review 2011 May; 12(5):e338-47. doi: 10.1111/j.1467-789X.2010.00846.x. Epub 2011 Mar. 28. Efficacy and safety of topiramate on weight loss: a meta-analysis of randomized controlled trials, ten clinical studies (3320 individuals) were evaluated, each of which was a randomized controlled study with at least 16 weeks of duration that reported the effect of topiramate on weight loss and adverse events using topiramate at 96-200 mg/day. […] Although the etiology is not apparent, a highly reasonable hypothesis is that the side effects and lack thereof, respectively, may be related to the significant dosage difference and/or administration mode (96-200 mg/day perorally versus 3 mg/week transnasally).

[2] = cited from earlier work; for mean percent weight loss from baseline to week 24: placebo −2.6%
[3] = 96-200 mg/day perorally, at least 16 weeks, ten clinical studies (3320 individuals); cited from earlier work
[4] = cited from earlier work
[5] = every patient, after the first dosage, 3 mg transnasally to the SPG

For `CC1(C)O[C@@H]2[C@@H](CO[C@@]3(COS(N)(=O)=O)OC(C)(C)O[C@@H]23)O1` [topiramate, 2,3:4,5-bis-O-(1-methylethylidene)-β-D-fructopyranose sulfamate], the “side effects (paresthesia, taste impairment and psychomotor disturbances) reported by patients” value ([1]; 3 mg/week transnasally to the SPG) was “none of which was reported by patients in the presently-reported example”, the “regular headache pain (patient-reported)” value ([1]; all patients, 3 mg/week transnasally to the SPG) was “reduced in frequency and severity” and the “craving for food, nicotine, and alcohol (patient-reported)” value [1, 5] was “immediate reduction of craving for food, nicotine, and alcohol”. For the same compound, the “satiety (needing less food intake to feel full; patient-reported)” value [1, 5] was “improved satiety”, the “patients with effective weight loss” value ([1]; human patients, 1.5 mg per nostril (3 mg) transnasally to the SPG once per week for four weeks) was 100% and the “mean percent weight loss from baseline to week 24” value (“mean percent weight loss” below) ([2]; 64 mg/day topiramate group) was −5.0%. For the same compound, the “mean percent weight loss” value ([2]; 96 mg/day topiramate group) was −4.8%, the “mean percent weight loss” value ([2]; 192 mg/day topiramate group) was −6.3% and the “mean percent weight loss” value ([2]; 384 mg/day topiramate group) was −6.3%. The “most frequent adverse events” value ([2]; 64-384 mg daily, 24 weeks) was “paresthesia, somnolence, and difficulty with memory, concentration, and attention”, the “percentages of patients who lost at least 5% or 10% of body weight compared with placebo” value ([2]; 64-384 mg daily, 24 weeks) was “Greater percentages of topiramate-treated patients lost at least 5% or 10% of body weight compared with placebo” and the “frequently observed side effects” value [3] was “paresthesia, taste impairment and psychomotor disturbances”. The solubility in water [4] was “up to 9.8 mg/mL”.

From patent publication US10278948B1, “Method for transnasal delivery of anticonvulsant and therapeutic treatments” (priority 2015, dated 2019)
